According to US20220340629A1, “Myosin Derived Peptides and Related Compounds with Anticoagulant Activities” (THE SCRIPPS RESEARCH INSTITUTE, priority 0001, published 2022):
Residues, ends and D or L forms follow the SMILES beside them.

How the values were obtained:
[1] = target: phospholipid-supported prothrombin activation by factors Xa and Va (Homo sapiens, UniProt P00742); experiment: Assay 1C: phospholipid vesicle (PC/PS 80%/20%)-supported prothrombin activation; format: biochemical
[2] = test system: thrombin generation in human platelet poor plasma with skeletal muscle myosin; experiment: Assay 2A: thrombin generation, recalcification of human platelet poor plasma + myosin; format: biochemical; conditions: human plasma, recalcification, myosin present; read-out: 2A (recalcification +myosin) IC50
In short: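 Pooled normal human platelet-poor plasma (30%) preincubated 5 min at 37° C with 50 nM skeletal muscle myosin and peptide in DMSO. Coagulation triggered with 10 mmol/L CaCl2 plus fluorogenic Z-Gly-Gly-Arg-AMC; thrombin generation followed 25 min (ex 360/em 460 nm). IC50 = peptide concentration giving 50% inhibition of thrombin generation.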

[3] = target: T1, cardiac myosin-enhanced prothrombin activation by factors Xa and Va (Homo sapiens, UniProt P00742); experiment: Cardiac myosin-enhanced prothrombin activation; format: biochemical; conditions: peptide 0 to 12.5 μM, cardiac myosin 2 nM, FIG. 17
T1 construct: factor Va (5 nM, final) and factor Xa (0.2 nM, final)
T1 sequence (P00742 41-179 limits assumed): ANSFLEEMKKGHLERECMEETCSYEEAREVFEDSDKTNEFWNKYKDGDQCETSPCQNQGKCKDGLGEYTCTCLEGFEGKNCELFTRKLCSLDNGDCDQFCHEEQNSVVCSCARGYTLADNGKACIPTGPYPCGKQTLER
T1 sequence (P00742 235-488 limits assumed): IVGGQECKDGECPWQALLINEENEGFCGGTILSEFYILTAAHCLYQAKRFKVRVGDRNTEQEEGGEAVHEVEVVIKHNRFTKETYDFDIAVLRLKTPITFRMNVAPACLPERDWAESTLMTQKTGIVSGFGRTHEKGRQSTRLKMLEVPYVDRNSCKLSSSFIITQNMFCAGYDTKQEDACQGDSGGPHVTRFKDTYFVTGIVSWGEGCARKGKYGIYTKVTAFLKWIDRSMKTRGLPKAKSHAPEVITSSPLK
Method: Varying concentrations of peptide HC796-835 (SEQ ID NO:21), ranging from 0 to 12.5 μM, were incubated with factor Va (5 nM, final) and factor Xa (0.2 nM, final) in Tris buffered saline containing bovine serum albumin (TBSA) plus 5 mM CaCl2 at room temperature in the presence of cardiac myosin (2 nM, final). Thrombin generation was initiated by the addition of prothrombin (0.75 μM) in TB SA containing 5 mM CaCl2. The reaction was quenched by adding EDTA (10 mM final) at 10 min. The rate of thrombin formation was quantified by measuring thrombin concentration as the rate of thrombin substrate hydrolysis. 100% was the value for controls in the absence of added peptides. Each value represents the mean [±SEM] of triplicate determinations.

[4] = test system: skeletal muscle myosin-supported prothrombin activation by factors Xa and Va; experiment: Assay 1A: prothrombin activation by factor Xa/factor Va/myosin in purified system; format: biochemical, human factors Xa and Va; rabbit skeletal muscle myosin
[5] = target: skeletal muscle myosin-supported prothrombin activation by factors Xa and Va (Homo sapiens, UniProt P00742); experiment: as above; format: biochemical, human factors Xa and Va; rabbit skeletal muscle myosin; conditions: FIG. 5; read-out: IC50, prothrombin activation by factor Xa/factor Va/myosin in purified system
Chain of skeletal muscle myosin-supported prothrombin activation by factors Xa and Va (Homo sapiens, UniProt P00742) (P00742 41-179): as the sequence (P00742 41-179 limits assumed) above
Chain of skeletal muscle myosin-supported prothrombin activation by factors Xa and Va (Homo sapiens, UniProt P00742) (P00742 235-488): as the sequence (P00742 235-488 limits assumed) above
Chain of skeletal muscle myosin-supported prothrombin activation by factors Xa and Va (Homo sapiens, UniProt P00742) (P12259 29-737 partner): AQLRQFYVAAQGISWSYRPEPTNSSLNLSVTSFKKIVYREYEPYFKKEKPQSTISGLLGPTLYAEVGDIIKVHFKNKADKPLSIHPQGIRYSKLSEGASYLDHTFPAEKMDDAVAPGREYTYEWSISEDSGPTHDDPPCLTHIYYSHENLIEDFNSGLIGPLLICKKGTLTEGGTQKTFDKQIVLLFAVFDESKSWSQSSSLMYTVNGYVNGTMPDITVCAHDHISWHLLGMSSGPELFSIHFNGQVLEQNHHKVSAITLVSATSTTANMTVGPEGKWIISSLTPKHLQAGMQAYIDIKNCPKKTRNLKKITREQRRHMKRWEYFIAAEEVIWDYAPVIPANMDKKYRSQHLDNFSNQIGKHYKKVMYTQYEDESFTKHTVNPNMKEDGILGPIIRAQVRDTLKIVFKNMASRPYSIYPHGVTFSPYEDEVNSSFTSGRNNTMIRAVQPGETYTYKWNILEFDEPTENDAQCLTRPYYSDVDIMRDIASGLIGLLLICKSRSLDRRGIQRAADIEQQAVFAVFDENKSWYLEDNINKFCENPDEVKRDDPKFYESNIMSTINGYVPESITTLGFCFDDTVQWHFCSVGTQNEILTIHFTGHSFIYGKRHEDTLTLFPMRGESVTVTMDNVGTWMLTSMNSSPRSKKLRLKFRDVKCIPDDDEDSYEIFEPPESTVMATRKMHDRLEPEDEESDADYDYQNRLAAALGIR
Chain of skeletal muscle myosin-supported prothrombin activation by factors Xa and Va (Homo sapiens, UniProt P00742) (P12259 1574-2224 partner): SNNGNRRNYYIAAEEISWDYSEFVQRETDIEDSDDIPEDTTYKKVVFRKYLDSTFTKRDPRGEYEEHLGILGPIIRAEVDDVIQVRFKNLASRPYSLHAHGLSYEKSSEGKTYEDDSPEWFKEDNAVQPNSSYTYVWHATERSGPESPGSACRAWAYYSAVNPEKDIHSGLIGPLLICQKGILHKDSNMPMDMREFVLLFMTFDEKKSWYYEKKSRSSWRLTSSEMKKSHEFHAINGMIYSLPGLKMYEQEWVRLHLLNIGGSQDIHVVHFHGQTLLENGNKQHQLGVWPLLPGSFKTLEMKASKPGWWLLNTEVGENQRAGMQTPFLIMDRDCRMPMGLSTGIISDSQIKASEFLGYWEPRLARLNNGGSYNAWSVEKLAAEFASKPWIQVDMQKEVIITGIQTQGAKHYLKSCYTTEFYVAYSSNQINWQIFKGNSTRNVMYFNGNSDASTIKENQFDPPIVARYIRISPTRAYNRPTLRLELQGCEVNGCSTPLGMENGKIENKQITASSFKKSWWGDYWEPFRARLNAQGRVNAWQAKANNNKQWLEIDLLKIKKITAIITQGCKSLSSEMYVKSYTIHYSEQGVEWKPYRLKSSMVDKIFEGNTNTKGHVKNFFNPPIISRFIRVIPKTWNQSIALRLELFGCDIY

[6] = test system: thrombin generation in human plasma; experiment: Thrombin generation assay in pooled normal human plasma (Examples 3 and 4); format: biochemical
Method: Thrombin generation assay in pooled human plasma: The effect of synthetic peptides on thrombin generation in pooled normal human plasma (George King Bio-medical, Inc., Overland Park, KS) was tested as described (1,11). Briefly, normal human plasma (30 μl) was mixed with CTI, followed by the addition of peptide. Then, tissue factor (TF) (Innovin) (0.5[…] pM final) containing 30 mM Ca^++ in TBSA with fluorogenic thrombin substrate solution (I-1140) (Bachem Americas, Inc., Torrance, Calif.) were added to the plasma to initiate coagulation activation. The first derivative of the time course data for substrate hydrolysis yielded the thrombin generation curve, allowing measurement of thrombin generation during the initiation, propagation and termination phases of thrombin generation and the value for peak thrombin generated.

[7] = target: factor Xa (Homo sapiens, UniProt P00742); experiment: Factor Xa peptide binding assay (immobilized peptide); conditions: FIG. 2C; read-out: apparent Kd, factor Xa binding to immobilized peptide
Method: Factor Xa Peptide Binding Assays: Peptide HC796-835 at 10 μg/mL in sodium bicarbonate (pH 9.3) was coated onto the wells of microtiter plates and then blocked with 5% fatty acid free BSA in TBS. After washing the plate with TBSA containing 5 mM CaCl2, various concentrations of factor Xa in binding buffer consisting of TBSA containing 5 mM CaCl2 were incubated in plate wells for 1 h at room temperature. Following 3 washings, bound factor Xa was detected by adding chromogenic substrate for factor Xa (S2222, Chromogenix, Franklin, Ohio). The absorbance values observed for triplicate noncoated wells lacking peptides served as nonspecific controls for binding and were subtracted from observed values for corresponding duplicate peptide-coated wells. Nonspecific binding of Factor Xa ranged from 5 to 20% of total observed binding in various experiments.
Statistical analysis: Apparent Kd values using saturation binding curve fit were performed using Prism™ 7.0 software (Graph Pad Software Inc., San Diego, Calif.).

[8] = test system: thrombin generation in human whole blood; experiment: Assay 4: thrombin generation in recalcified human whole blood; format: biochemical; conditions: recalcification
Method: In addition to purified protein system and human plasma, assays using whole blood (Assay 4) were also performed to examine anti-coagulant activities of the peptides and derivative compounds. In these assays, freshly drawn anticoagulated human whole blood (80 μL aliquot) was incubated with peptide in DMSO or DMSO alone (control) for 5 min at 37° C. Then, fluorogenic thrombin substrate solution (Z-Gly-Gly-Arg-AMC) (I-1140) with 10 mmol/L CaCl2 (final) alone was added to the reaction mixture (total 110 μl) in 96 well plate to initiate coagulation. Thrombin generation was followed continuously for 25 min using SPECTRAmax GEMINI XS fluorometer (Molecular Devices, Sunnyvale, Calif.) with excitation and emission wavelengths set at 360 and 460 nm, respectively. The first derivative of fluorescence versus time was used to produce thrombin generation curves with the correction for substrate consumption and inner filter effect. IC50 were determined using a curve fit program in Prism7.0 (GraphPad Software, San Diego, Calif.).

Chain of phospholipid-supported prothrombin activation by factors Xa and Va (P00742 41-179 limits assumed): as the sequence (P00742 41-179 limits assumed) above
Chain of phospholipid-supported prothrombin activation by factors Xa and Va (P00742 235-488 limits assumed): as the sequence (P00742 235-488 limits assumed) above

With CC[C@H](C)[C@H](NC(=O)[C@H](C)NC(=O)[C@H](CCC(=O)O)NC(=O)[C@H](CCCNC(=N)N)NC(=O)[C@H](CCCNC(=N)N)NC(=O)[C@H](CCC(=O)O)NC(=O)[C@@H](NC(=O)[C@H](CCSC)NC(=O)[C@H](CCCNC(=N)N)NC(=O)[C@H](CCC(N)=O)NC(=O)[C@H](Cc1ccc(O)cc1)NC(=O)[C@H](CCC(=O)O)NC(=O)[C@@H](NC(=O)[C@H](CCCNC(=N)N)NC(=O)[C@H](C)NC(=O)[C@H](CC(C)C)NC(=O)[C@H](Cc1ccccc1)NC(=O)CNC(=O)[C@H](CCCNC(=N)N)NC(=O)[C@H](CS)NC(=O)[C@H](CCCNC(=N)N)NC(=O)[C@H](C)N)C(C)C)C(C)C)C(=O)N[C@@H](Cc1ccccc1)C(=O)N[C@@H](CS)C(=O)N[C@H](C(=O)N[C@@H](CCC(N)=O)C(=O)N[C@@H](Cc1ccc(O)cc1)C(=O)N[C@@H](CC(N)=O)C(=O)N[C@H](C(=O)N[C@@H](CCCNC(=N)N)C(=O)N[C@@H](CO)C(=O)N[C@@H](Cc1ccccc1)C(=O)N[C@@H](CCSC)C(=O)N[C@@H](CC(N)=O)C(=O)N[C@H](C(=O)N[C@@H](CCCCN)C(=O)N[C@@H](Cc1c[nH]cn1)C(=O)N[C@@H](Cc1c[nH]c2ccccc12)C(=O)N1CCC[C@H]1C(=O)N[C@@H](Cc1c[nH]c2ccccc12)C(N)=O)C(C)C)[C@@H](C)CC)[C@@H](C)CC [HC796-835] (H-ARCRGFLARVEYQRMVERREAIFCIQYNIRSFMNVKHWPW-NH2) the “inhibitory effects on phospholipid-supported prothrombin activation” value ([1]; compared with effects on myosin-supported prothrombin activation) was “not apparent”, the “1C (+phospholipid)” value ([1]; purified system, phospholipid vesicles) was “No activity” and the IC50 [2] was 3800 nM. The “inhibition of cardiac myosin-enhanced prothrombin activation” value [3] was “inhibition”, the IC50 ([4]; dose-dependency assays, FIG. 2A, myosin 2 nM, read-out: IC50, inhibition of myosin-supported prothrombin activation) was 1200 nM and the “inhibition of myosin-supported prothrombin activation at 5 μM” value ([4]; peptide 5 μM, FIG. 1A) was “inhibitory, to varying degrees”. The “inhibition of myosin-supported prothrombin activation at 100 μM” value ([4]; peptide 100 μM, FIG. 1A) was “inhibited”, the IC50 [5] was 1300 nM and the IC50 ([6]; FIG. 3B, peptide 0-25 μM, read-out: IC50, inhibition of thrombin generation in plasma) was ~5500 nM. For the same molecule, the “inhibition of thrombin generation in human plasma” value ([6]; screened at 25 μM, FIG. 3A) was “significantly inhibited”, the Kd [7] was 1400 nM and the “4 (recalcification) IC50” value [8] was “No activity”.
